# Test results published in patent US8012956B2, “Tropane compounds” (Exelixis, Inc., priority 2007, dated 2011).
# Molecular target: HSP90 (Homo sapiens, UniProt P07900)
# Assay: HSP90 inhibition (HSP90 IC50)
# Type: biochemical
row,IC50,Compound
1,< 500 nM,"NC(=O)c1ccc(C(=O)N[C@H]2C[C@H]3CC[C@@H](C2)N3c2ccc(C(=O)C3CC3)cn2)cc1NCC1CC1 [N4-{8-[5-(cyclopropylcarbonyl)pyridin-2-yl]-8-azabicyclo[3.2.1]oct-3-endo-yl}-2-[(cyclopropylmethyl)amino]benzene-1,4-dicarboxamide]"
2,500 to 999 nM,COc1cccc(C(=O)NC2CC3CCC(C2)N3c2ccc(C(=O)NC3CCCNC3)cn2)c1C (stereo not drawn) [6-[3-endo-({[2-methyl-3-(methyloxy)phenyl]carbonyl}amino)-8-azabicyclo[3.2.1]oct-8-yl]-N-piperidin-3-ylpyridine-3-carboxamide]
3,1000 to 2000 nM,COc1cccc(C(=O)N[C@H]2C[C@H]3CC[C@@H](C2)N3c2ccc(C(N)=O)cn2)c1CCCO [6-[3-endo-({[2-(3-hydroxypropyl)-3-(methyloxy)phenyl]carbonyl}amino)-8-azabicyclo[3.2.1]oct-8-yl]pyridine-3-carboxamide]
4,< 500 nM,"CC(C)(C)Nc1cc(C(=O)N[C@H]2C[C@H]3CC[C@@H](C2)N3c2ccc(C(=O)C3CC3)cn2)c(Br)cc1C(N)=O [2-bromo-N-{8-[5-(cyclopropylcarbonyl)pyridin-2-yl]-8-azabicyclo[3.2.1]oct-3-endo-yl}-5-[(1,1-dimethylethyl)amino]benzene-1,4-dicarboxamide]"
5,< 500 nM,"Cc1cc(C(=O)N[C@H]2C[C@H]3CC[C@@H](C2)N3c2ccc(C(=O)NC3CN(C)C3)cn2)c(C)cc1C(N)=O [2,5-dimethyl-N-[8-(5-{[(1-methylazetidin-3-yl)amino]carbonyl}pyridin-2-yl)-8-azabicyclo[3.2.1]oct-3-endo-yl]benzene-1,4-dicarboxamide]"
6,< 500 nM,"CCC(CC)Nc1cc(C(=O)N[C@H]2C[C@H]3CC[C@@H](C2)N3c2ccc(C(=O)C3CC3)cn2)ccc1C(N)=O [N4-{8-[5-(cyclopropylcarbonyl)pyridin-2-yl]-8-azabicyclo[3.2.1]oct-3-endo-yl}-2-[(1-ethylpropyl)amino]benzene-1,4-dicarboxamide]"
7,< 500 nM,"CC(=O)c1ccc(N2[C@@H]3CC[C@H]2C[C@@H](NC(=O)c2ccc(C(N)=O)c(NC(C)C(C)C)c2)C3)nc1 (stereo partly drawn) [N4-[8-(5-acetylpyridin-2-yl)-8-azabicyclo[3.2.1]oct-3-endo-yl]-2-[(1,2-dimethylpropyl)amino]benzene-1,4-dicarboxamide]"
8,< 500 nM,"COCCNc1cc(C(=O)N[C@H]2C[C@H]3CC[C@@H](C2)N3c2ccc(C(N)=O)cn2)ccc1C(N)=O [N4-{8-[5-(aminocarbonyl)pyridin-2-yl]-8-azabicyclo[3.2.1]oct-3-endo-yl}-2-{[2-(methyloxy)ethyl]amino}benzene-1,4-dicarboxamide]"
9,< 500 nM,"NC(=O)c1cc(Br)c(C(=O)N[C@H]2C[C@H]3CC[C@@H](C2)N3c2ccc(C(=O)C3CC3)cn2)cc1N [5-amino-2-bromo-N-{8-[5-(cyclopropylcarbonyl)pyridin-2-yl]-8-azabicyclo[3.2.1]oct-3-endo-yl}benzene-1,4-dicarboxamide]"
10,1000 to 2000 nM,"COc1cccc(C(=O)NC2CC3CCC(C2)N3c2ccc(C(=O)N[C@@H](C)C(C)C)cn2)c1C (stereo partly drawn) [N-[(1S)-1,2-dimethylpropyl]-6-[3-endo-({[2-methyl-3-(methyloxy)phenyl]carbonyl}amino)-8-azabicyclo[3.2.1]oct-8-yl]pyridine-3-carboxamide]"
11,1000 to 2000 nM,"CC(=O)Nc1cc(C(=O)N[C@H]2C[C@H]3CC[C@@H](C2)N3c2ccc(C(N)=O)cn2)ccc1C(N)=O [2-(acetylamino)-N4-{8-[5-(aminocarbonyl)pyridin-2-yl]-8-azabicyclo[3.2.1]oct-3-endo-yl}benzene-1,4-dicarboxamide]"
12,< 500 nM,"COc1ccc(Nc2cc(C(=O)N[C@H]3C[C@H]4CC[C@@H](C3)N4c3ccc(C(N)=O)cn3)ccc2C(N)=O)cc1OCCN(C)C [N4-{8-[5-(aminocarbonyl)pyridin-2-yl]-8-azabicyclo[3.2.1]oct-3-endo-yl}-2-{[3-{[2-(dimethylamino)ethyl]oxy}-4-(methyloxy)phenyl]amino}benzene-1,4-dicarboxamide]"
13,< 500 nM,CCN(CC)CCOc1ccc([C@H](C)NC(=O)c2ccc(N3C4CCC3CC(NC(=O)c3cccc(OC)c3C)C4)nc2)c(F)c1 (stereo partly drawn) [N-[(1S)-1-(4-{[2-(diethylamino)ethyl]oxy}-2-fluorophenyl)ethyl]-6-[3-endo-({[2-methyl-3-(methyloxy)phenyl]carbonyl}amino)-8-azabicyclo[3.2.1]oct-8-yl]pyridine-3-carboxamide]
14,2000 to 10000 nM,COc1cccc(C(=O)N[C@H]2C[C@H]3CC[C@@H](C2)N3c2ccc(C(=O)NCCOC(C)C)cn2)c1C [N-{2-[(1-methylethyl)oxy]ethyl}-6-(3-endo-({[2-methyl-3-(methyloxy)phenyl]carbonyl}amino)-8-azabicyclo[3.2.1]oct-8-yl]pyridine-3-carboxamide]
15,< 500 nM,"CCCNc1cc(C(=O)N[C@H]2C[C@H]3CC[C@@H](C2)N3c2ccc(C(C)=O)cn2)ccc1C(N)=O [N4-[8-(5-acetylpyridin-2-yl)-8-azabicyclo[3.2.1]oct-3-endo-yl]-2-(propylamino)benzene-1,4-dicarboxamide]"
16,500 to 999 nM,COc1ccc(NC(=O)c2ccc(N3[C@@H]4CC[C@H]3C[C@@H](NC(=O)c3cccc(OC)c3C)C4)nc2)cc1 [6-[3-endo-({[2-methyl-3-(methyloxy)phenyl]carbonyl}amino)-8-azabicyclo[3.2.1]oct-8-yl]-N-[4-(methyloxy)phenyl]pyridine-3-carboxamide]
17,< 500 nM,"NC(=O)c1ccc(C(=O)N[C@H]2C[C@H]3CC[C@@H](C2)N3c2ccc(C(=O)CCC3CCNCC3)cn2)cc1NCC1CC1 [2-[(cyclopropylmethyl)amino]-N4-{8-[5-(3-piperidin-4-ylpropanoyl)pyridin-2-yl]-8-azabicyclo[3.2.1]oct-3-endo-yl}benzene-1,4-dicarboxamide]"
18,< 500 nM,"COc1ccc(Nc2cc(C(=O)N[C@H]3C[C@H]4CC[C@@H](C3)N4c3ccc(C(C)=O)cn3)ccc2C(N)=O)cc1OCCN(C)C [N4-[8-(5-acetylpyridin-2-yl)-8-azabicyclo[3.2.1]oct-3-endo-yl]-2-{[3-{[2-(dimethylamino)ethyl]oxy}-4-(methyloxy)phenyl]amino}benzene-1,4-dicarboxamide]"
19,< 500 nM,COc1ccc([C@H](C)NC(=O)c2ccc(N3C4CCC3CC(NC(=O)c3cccc(OC)c3C)C4)nc2)cc1 (stereo partly shown)
20,< 500 nM,COc1cccc(C(=O)N[C@H]2C[C@H]3CC[C@@H](C2)N3c2ccc(C(=O)NC3CCNCC3)cn2)c1C [6-[3-endo-({[2-methyl-3-(methyloxy)phenyl]carbonyl}amino)-8-azabicyclo[3.2.1]oct-8-yl]-N-piperidin-4-ylpyridine-3-carboxamide]
21,2000 to 10000 nM,"COc1ccc(CCNC(=O)c2ccc(N3[C@@H]4CC[C@H]3C[C@@H](NC(=O)c3cccc(OC)c3C)C4)nc2)cc1OC [N-{2-[3,4-bis(methyloxy)phenyl]ethyl}-6-[3-endo-({[2-methyl-3-(methyloxy)phenyl]carbonyl}amino)-8-azabicyclo[3.2.1]oct-8-yl]pyridine-3-carboxamide]"
22,< 500 nM,"CC(C)N1CC[C@@H](NC(=O)c2ccc(N3C4CCC3CC(NC(=O)c3ccc(C(N)=O)c(N[C@H]5CC[C@H](O)CC5)c3)C4)nc2)C1 (stereo partly drawn) [2-[(4-trans-hydroxycyclohexyl)amino]-N4-{8-[5-({[1-(1-methylethyl)pyrrolidin-3-yl]amino}carbonyl)pyridin-2-yl]-8-azabicyclo[3.2.1]oct-3-endo-yl}benzene-1,4-dicarboxamide]"
23,500 to 999 nM,"CC(=O)c1ccc(N2[C@@H]3CC[C@H]2C[C@@H](NC(=O)c2ccc(C(N)=O)c(NCCCNC(C)C)c2)C3)nc1 [N4-[8-(5-acetylpyridin-2-yl)-8-azabicyclo[3.2.1]oct-3-endo-yl]-2-({3-[(1-methylethyl)amino]propyl}amino) benzene-1,4-dicarboxamide]"
24,1000 to 2000 nM,"CON(C)C(=O)c1ccc(N2[C@@H]3CC[C@H]2C[C@@H](NC(=O)c2ccc(C(N)=O)c(NCC4CC4)c2)C3)nc1 [2-[(cyclopropylmethyl)amino]-N4-[8-(5-{[methyl(methyloxy)amino]carbonyl}pyridin-2-yl)-8-azabicyclo[3.2.1]oct-3-endo-yl]benzene-1,4-dicarboxamide]"
25,< 500 nM,"CC(=O)c1ccc(N2[C@@H]3CC[C@H]2C[C@@H](NC(=O)c2cc(C)c(C(N)=O)cc2C)C3)nc1 [N-[8-(5-acetylpyridin-2-yl)-8-azabicyclo[3.2.1]oct-3-endo-yl]-2,5-dimethylbenzene-1,4-dicarboxamide]"
26,< 500 nM,COc1ccc(CNC(=O)c2ccc(N3[C@@H]4CC[C@H]3C[C@@H](NC(=O)c3cccc(OC)c3C)C4)nc2)c(F)c1 [N-{[2-fluoro-4-(methyloxy)phenyl]methyl}-6-[3-endo-({[2-methyl-3-(methyloxy)phenyl]carbonyl}amino)-8-azabicyclo[3.2.1]oct-8-yl]pyridine-3-carboxamide]
27,< 500 nM,O=C(NCc1cccnc1)c1ccc(N2[C@@H]3CC[C@H]2C[C@@H](NC(=O)c2ccc(CO)cc2)C3)nc1 [6-[3-endo-({[4-(hydroxymethyl)phenyl]carbonyl}amino)-8-azabicyclo[3.2.1]oct-8-yl]-N-(pyridin-3-ylmethyl)pyridine-3-carboxamide]
28,500 to 999 nM,"CC(=O)c1ccc(N2[C@@H]3CC[C@H]2C[C@@H](NC(=O)c2ccc(C(N)=O)c(N)c2)C3)nc1 [N4-[8-(5-acetylpyridin-2-yl)-8-azabicyclo[3.2.1]oct-3-endo-yl]-2-aminobenzene-1,4-dicarboxamide]"
29,2000 to 10000 nM,Cc1cc(N)ccc1C(=O)N[C@H]1C[C@H]2CC[C@@H](C1)N2c1ccc(C(N)=O)cn1 [6-(3-endo-{[(4-amino-2-methylphenyl)carbonyl]amino}-8-azabicyclo[3.2.1]oct-8-yl)pyridine-3-carboxamide]
30,< 500 nM,COc1cccc(C(=O)NC2CC3CCC(C2)N3c2ccc(C(=O)N[C@@H](C)c3ccccc3)cn2)c1C (stereo partly drawn) [6-[3-endo-({[2-methyl-3-(methyloxy)phenyl]carbonyl}amino)-8-azabicyclo[3.2.1]oct-8-yl]-N-[(1S)-1-phenylethyl]pyridine-3-carboxamide]

row,Compound,IC50
1,"N-{8-[5-(cyclopropylcarbonyl)pyridin- 2-yl]-8-azabicyclo[3.2.1]oct-3-endo- yl}-5-[(1-ethylpropyl)amino]-2- methylbenzene-1,4-dicarboxamide",< 500 nM
